Data taken from ChEMBL document CHEMBL3045920, “Antifeedant activity of some diterpenoids” (1999).

Key:
Type in all cases: functional
[1] = tested on: Henosepilachna vigintioctopunctata; test: Antifeedant activity against fourth-instar nymphs of Henosepilachna vigintioctopunctata at 0.05 mg/cm'2 after 4 hr
[2] = tested on: Henosepilachna vigintioctopunctata; test: Antifeedant activity against adults of Henosepilachna vigintioctopunctata at 0.05 mg/cm'2 after 4 hr
[3] = tested on: Henosepilachna vigintioctopunctata; test: Antifeedant activity against adults of Henosepilachna vigintioctopunctata at 5 mg/cm'2 after 4 hr
[4] = tested on: Henosepilachna vigintioctopunctata; test: Antifeedant activity against fourth-instar nymphs of Henosepilachna vigintioctopunctata at 5 mg/cm'2 after 4 hr
[5] = tested on: Henosepilachna vigintioctopunctata; test: Antifeedant activity against fourth-instar nymphs of Henosepilachna vigintioctopunctata at 0.5 mg/cm'2 after 4 hr
[6] = tested on: Henosepilachna vigintioctopunctata; test: Antifeedant activity against adults of Henosepilachna vigintioctopunctata at 0.5 mg/cm'2 after 4 hr

Row | Structure (SMILES) | Activity [1] [%] | Activity [2] [%] | Activity [3] [%] | Activity [4] [%] | Activity [5] [%] | Activity [6] [%]
1 | CC(=O)OC[C@@]12C=C[C@@H](C)[C@](C)([C@@H]3C[C@H]4C(OC(C)=O)CO[C@H]4O3)[C@H]1CC[C@H](OC(C)=O)[C@]21CO1 (stereo partly specified) | -18.69 | -20.26 | 23.45 | 1.28 | -1.39 | 22.53
2 | CC(=O)OC[C@@]12[C@@H](OC(C)=O)C[C@@H](C)[C@](C)([C@@H]3C[C@H]4C=CO[C@H]4O3)[C@H]1CC[C@H](OC(C)=O)[C@]21CO1 [3-EPICARYOPTIN] | 16.12 | 31.07 | 31.93 | 23.56 | 9.37 | 37.02
3 | CC(=O)OC[C@@]12[C@@H](OC(C)=O)C[C@@H](C)[C@](C)([C@@H]3C[C@@H]4CCO[C@H]4O3)[C@H]1CC[C@H](OC(C)=O)[C@]21CO1 [14,15-DIHYDRO-3-EPICARYOPTIN] | 21.14 | 10.2 | 39.34 | 39.2 | 20.39 | 8.39
4 | C=C1CC[C@@H]2[C@](C)(CO)[C@H](O)CC[C@@]2(C)[C@@H]1C/C=C1/C(=O)OC[C@H]1O [ANDROGRAPHOLIDE] | -16.76 | -10.95 | 24.26 | 54.06 | -52.38 | 1.04
5 | CC(=O)OC[C@@]12[C@@H](OC(C)=O)C[C@@H](C)[C@](C)([C@@H]3C[C@H]4C=CO[C@H]4O3)[C@H]1CC[C@@H](OC(C)=O)[C@]21CO1 [CARYOPTIN] | 34.37 | -5.31 | 84.95 | 44.46 | 72.51 | -10.03
6 | C[C@@]12CCCC(CO)(CO)[C@H]1CC[C@H](CO)[C@H]2CCC1=CCOC1=O [WIGHTIONOLIDE] | -52.79 | 18.42 | -4.1 | -11.72 | -14.03 | 7.15
